Laboratory results: patent US20130203647A1, “DELIVERY OF H[…]” (UNIVERSITY COLLEGE LONDON, priority 2010, published 2013)
Non-standard residues stand in square brackets, D forms with d. Residues, ends and D or L forms follow the SMILES beside them. ξ: configuration not given here. *: point of attachment. Palmitoyl = CCCCCCCCCCCCCCCC(=O)*; ξY = NC(Cc1ccc(O)cc1)C(=O)O; ξR = N=C(N)NCCCC(N)C(=O)O; ξF = NC(Cc1ccccc1)C(=O)O; ξL = CC(C)CC(N)C(=O)O

How the values were obtained:
[1] = Pharmacokinetics: brain levels after intravenous administration (UPLC-MS/MS); format: in vivo; conditions: ICR (CD-1) mice, dalargin dose of 30 mg kg-1, FIG. 1
Experimental: (§1) ICR (CD-1) male out bred mice (18-24 g, 4 weeks old, Harlan, Oxon, UK) were used for the pharmacokinetics evaluations while ICR (CD-1) male out bred mice (22-28 g, 4-5 weeks old) were used for the pharmacodynamics evaluations. The animals were housed in groups of 5 in plastic cages in controlled laboratory conditions with ambient temperature and humidity maintained at ˜22° C. and 60% respectively with a 12-hour light and dark cycle (lights on at 7:00 and off at 19:00). Food and water were available ad libitum and the animals acclimatised for 5-7 days prior to any experiments in the Animal House, School of Pharmacy, University of London (London, UK). Animals were only used once and were acclimatised in the testing environment for at least 1 hour prior to testing. […]
Groups (n=5) of animals were administered either: NaCl (0.9% w/v), Dalargin, Dalargin-GCPQA, pDal and pDal-GCPQA. […] At various time points, animals were killed and their brain, liver and plasma analysed. […]
Brain and Liver were immediately frozen in liquid Nitrogen after being taken from the mouse. […] The brain and liver weights were determined and 2 mL water per g of brain was added to each (equivalent to 2 g of solvent to 1 g of brain). […]

mice = test: Tail flick warm water bioassay (anti-nociception); format: in vivo; conditions: ICR (CD-1) mice, intravenous, dalargin dose of 15 mg kg-1, water at 55° C., FIG. 2
Experimental: as §1, with “UK).” for “UK). Animals were only used once and were acclimatised in the testing environment for at least 1 hour prior to testing.”
Anti-nociception was assessed in mice using the tail flick warm water bioassay (17, 18). […] The response latency times, in centiseconds, recorded for each mouse to withdraw its tail by a “sharp flick” were recorded using a digital stopwatch capable of measuring 1/100th of a second. […]
Two separate withdrawal latency determinations (separated by ≧20 sec) were averaged. […] Mice not responding within 5 sec were excluded from further testing (Baseline cut-off=5 seconds) and the baseline latency was measured for all mice 2 hours prior testing. […] Briefly, percent antinociception was calculated as 100%×(test latency-baseline latency)/(10 seconds-baseline latency). […]

Row | Molecule | Detection in the brain (brain levels) [1] | Antinociceptive effect (% of Maximum Possible Effect, tail flick) (mice)
1 | CCCCCCCCCCCCCCCC(=O)Oc1ccc(CC(N)C(=O)N[C@H](C)C(=O)NCC(=O)NC(Cc2ccccc2)C(=O)NC(CC(C)C)C(=O)NC(CCCNC(=N)N)C(=O)O)cc1 (stereo partly drawn) [pDal, Palmitoyl Dalargin] (H-[ξY](Palmitoyl)[dA]G[ξF][ξL][ξR]-OH) | detected in the brain | –
2 | Dalargin | not detected in the brain | unable to exert an antinociceptive effect
